Experimental data published in ChEMBL document CHEMBL3044944, “Synthesis and evaluation of meta substituted 1-(aryloxypropyl)-4-(chloroaryl) piperazines as potential atypical antipsychotics” (2013).
Active and inactive are the calls of the source. No cut-off for these calls is given here.

Experiments:
Mus musculus [1] = experiment: Antipsychotic activity in Mus musculus albino lyka (mouse) assessed as reversal of apomorphine-induced stereotypy at 5 to 10 mg/kg, ip administered 10 min prior to apomorphine challenge measured after 10 to 30 min; format: functional, organism-based
Mus musculus [2] = experiment: Antipsychotic activity in Mus musculus albino lyka (mouse) assessed as reversal of apomorphine-induced mesh climbing at 5 to 10 mg/kg, ip administered 10 min prior to apomorphine challenge measured after 10 to 30 min; format: functional, organism-based
Mus musculus [3] = experiment: Antipsychotic activity in ip dosed Mus musculus albino lyka (mouse) assessed as reversal of apomorphine-induced mesh climbing administered 10 min prior to apomorphine challenge measured after 10 to 30 min; format: functional; details: for ED50: Mus musculus, albino lyka, ip

| SMILES | Activity (Mus musculus [1]) | Activity (Mus musculus [2]) | logED50 (Mus musculus [3]) | ED50 (Mus musculus [3]) |
| --- | --- | --- | --- | --- |
| CC(=O)c1cccc(OCCCN2CCN(C(=O)c3ccccc3Cl)CC2)c1 | Active | inactive |  |  |
| CC(=O)c1cccc(OCCCN2CCN(C(=O)c3ccc(Cl)cc3)CC2)c1 | Active | inactive |  |  |
| O=Cc1cccc(OCCCN2CCN(Cc3ccccc3Cl)CC2)c1 | inactive |  | 0.799 | 6.3 mg/kg |
| CC(=O)c1cccc(OCCCN2CCN(Cc3ccc(Cl)cc3)CC2)c1 | inactive |  | 0.857 | 7.2 mg/kg |
| CC(=O)c1cccc(OCCCN2CCN(Cc3ccccc3Cl)CC2)c1 | inactive |  | 0.903 | 8 mg/kg |
| O=Cc1cccc(OCCCN2CCN(Cc3ccc(Cl)cc3)CC2)c1 | Active |  | 1 | 10 mg/kg |
| O=Cc1cccc(OCCCN2CCN(C(=O)c3ccccc3Cl)CC2)c1 | Active | inactive |  |  |
| O=Cc1cccc(OCCCN2CCN(C(=O)c3ccc(Cl)cc3)CC2)c1 | Active | inactive |  |  |
